Reference: patent US6664251B2, “Benzothiazine derivative” (Daiichi Suntory Pharma Co., Ltd., priority 1993, dated 2003)

Assays:
serotonin-2 receptor = test: Anti-serotonin action (anti-5-HT action): contraction of isolated superior mesenteric artery induced by serotonin; settings: contraction induced by 10^−5 M serotonin (5-HT) taken as 100%, Hartley male guinea pig superior mesenteric artery; for Anti 5-HT action (% of Control) 10^−6 M: test drug 10^−6 M; for Anti 5-HT action (% of Control) 10^−7 M: test drug 10^−7 M
Method: (1) Anti-Serotonin Action (Anti-5-HT Action)
A preparation cut in a helical form was suspended under 0.3 g load in a Magnus cylinder filled with the Tyrode solution which had been aerated with a gas mixture of 95% O2+5% CO2 and maintained at 37° C. Using an isometric transducer (“UL-10”, manufactured by SHINKOH K.K.) and a pressure preamplifier (“DSA-605A”, manufactured by SHINKOH K.K.), variations in tension were measured. The isometric tensions were recorded on a pen-writing recorder (“VP-6537A”, manufactured by NATIONAL K.K.). Taking the contraction induced by 10^−5 M serotonin (5-HT) as 100%, the percent contractions in the presence of each test drug at 10^−7 and 10^−6 M were determined as anti-5-HT action.

α1 receptor = test: Anti-α1 action: tonic contraction of isolated thoracic aorta induced by norepinephrine; settings: tonic contraction induced by 10^−5 M norepinephrine (NE) taken as 100%, Hartley male guinea pig thoracic aorta; for Anti α1 action (% of Control) 10^−7 M: test drug 10^−7 M; for Anti α1 action (% of Control) 10^−8 M: test drug 10^−8 M
Method: The thoracic aorta of each Hartley male guinea pig (body weight: 300-500 g) was excised. A preparation cut in a helical form was suspended under 1 g load in a Magnus cylinder filled with the Tyrode solution which had been aerated with a gas mixture of 95% O2+5% CO2 and maintained at 37° C. Using an isometric transducer (“TB-612J”, manufactured by NIHON KOHDEN) and a pressure preamplifier (“AP-620G”, manufactured by NIHON KOHDEN), variations in tension were measured. The isometric tensions were recorded on a thermal pen-writing recorder (“WT-647G”, manufactured by NIHON KOHDEN).
Taking the tonic contraction induced by 10^−5 M norepinephrine (NE) as 100%, the percent contractions upon addition of each test drug at 10^−8 and 10^−7 M were determined as anti-α1 action.

Compound	Anti 5-HT action (% of Control) 10^−6 M (serotonin-2 receptor)	Anti 5-HT action (% of Control) 10^−7 M (serotonin-2 receptor)	Anti α1 action (% of Control) 10^−7 M (α1 receptor)	Anti α1 action (% of Control) 10^−8 M (α1 receptor)
COC1=CN(CCCN2CCN(c3ccc(F)cc3)CC2)S(=O)(=O)c2ccccc21 [Compound No. 56, 2-[3-[4-(4-fluorophenyl)piperazin-1-yl]propyl]-4-methoxy-2H-1,2-benzothiazine 1,1-dioxide]	16.9 % of Control	60.8 % of Control	69.5 % of Control	95.4 % of Control
COc1cccc2c1C1(CN(CCCN3CCN(c4ccc(O)cc4)CC3)S2(=O)=O)OCCO1 [Compound No. 111, 2-[3-[4-(4-hydroxyphenyl)piperazin-1-yl]propyl]-5-methoxy-3,4-dihydro-2H-1,2-benzothiazin-4-one 1,1-dioxide ethylene acetal]	–	10.9 % of Control	98.6 % of Control	100.9 % of Control
O=S1(=O)c2cccc(Cl)c2C2(CN1CCCN1CCN(c3ccc(O)cc3)CC1)OCCO2 [Compound No. 114, 5-chloro-2-[3-[4-(4-hydroxyphenyl)piperazin-1-yl]propyl]-3,4-dihydro-2H-1,2-benzothiazin-4-one 1,1-dioxide ethylene acetal]	–	23.5 % of Control	98.9 % of Control	101.1 % of Control
COc1ccc2c(c1)C1(CN(CCCN3CCN(c4ccc(F)cc4)CC3)S2(=O)=O)OCCO1 [Compound No. 115, 2-[3-[4-(4-fluorophenyl)piperazin-1-yl]propyl]-6-methoxy-3,4-dihydro-2H-1,2-benzothiazin-4-one 1,1-dioxide ethylene acetal]	14.1 % of Control	63.0 % of Control	62.3 % of Control	100.4 % of Control
O=S1(=O)c2ccc(Cl)cc2C2(CN1CCCN1CCN(c3ccc(F)cc3)CC1)OCCO2 [Compound No. 117, 6-chloro-2-[3-[4-(4-fluorophenyl)piperazin-1-yl]propyl]-3,4-dihydro-2H-1,2-benzothiazin-4-one 1,1-dioxide ethylene acetal]	23.6 % of Control	48.0 % of Control	80.2 % of Control	97.1 % of Control
O=S1(=O)c2ccccc2C2(CN1CCCN1CCN(c3ccc(F)cc3)CC1)OCCO2 [Compound No. 62, 2-[3-[4-(4-fluorophenyl)piperazin-1-yl]propyl]-3,4-dihydro-2H-1,2-benzothiazin-4-one 1,1-dioxide ethylene acetal]	3.3 % of Control	14.1 % of Control	53.1 % of Control	98.1 % of Control
COc1cccc2c1C1(CN(CCCN3CCN(c4ccc(F)cc4)CC3)S2(=O)=O)OCCO1 [Compound No. 110, 2-[3-[4-(4-fluorophenyl)piperazin-1-yl]propyl]-5-methoxy-3,4-dihydro-2H-1,2-benzothiazin-4-one 1,1-dioxide ethylene acetal]	–	5.6 % of Control	81.1 % of Control	100 % of Control
COC1(OC)CN(CCCN2CCN(c3ccc(F)cc3)CC2)S(=O)(=O)c2ccccc21 [Compound No. 55, 2-[3-[4-(4-fluorophenyl)piperazin-1-yl]propyl]-4,4-dimethoxy-3,4-dihydro-2H-1,2-benzothiazine 1,1-dioxide]	7.4 % of Control	23.4 % of Control	89.2 % of Control	100 % of Control
O=S1(=O)c2ccccc2C2(CN1CCCN1CCN(c3ccc(F)cc3)CC1)OCCCO2 [Compound No. 64, 2-[3-[4-(4-fluorophenyl)piperazin-1-yl]propyl]-3,4-dihydro-2H-1,2-benzothiazine-4-spiro-2′-(1′,3′-dioxane) 1,1-dioxide]	13.8 % of Control	24.8 % of Control	84.9 % of Control	97.3 % of Control
COc1cccc2c1C1(CN(CCN3CCN(c4ccc(F)cc4)CC3)S2(=O)=O)OCCO1 [Compound No. 109, 2-[2-[4-(4-fluorophenyl)piperazin-1-yl]ethyl]-5-methoxy-3,4-dihydro-2H-1,2-benzothiazin-4-one 1,1-dioxide ethylene acetal]	–	10.5 % of Control	96.1 % of Control	99.3 % of Control
O=S1(=O)c2ccccc2C2(CN1CCCN1CCN(c3ccc(F)cc3)CC1)SCCS2 [Compound No. 66, 2-[3-[4-(4-fluorophenyl)piperazin-1-yl]propyl]-3,4-dihydro-2H-1,2-benzothiazine-4-spiro-2′-(1′,3′-dithiolan) 1,1-dioxide]	2.8 % of Control	66.6 % of Control	86.5 % of Control	100 % of Control
O=C(c1ccc(F)cc1)C1CCN(CCCN2CC3(OCCO3)c3ccccc3S2(=O)=O)CC1 [Compound No. 40, 2-[3-[4-(4-fluorobenzoyl)piperidino]-propyl]-3,4-dihydro-2H-1,2-benzothiazine-4-spiro-2′-(1′,3′-dioxolan) 1,1-dioxide]	13.4 % of Control	37.4 % of Control	73.2 % of Control	98.3 % of Control
O=S1(=O)c2cccc(Cl)c2C2(CN1CCCN1CCN(c3ccc(F)cc3)CC1)OCCO2 [Compound No. 113, 5-chloro-2-[3-[4-(4-fluorophenyl)piperazin-1-yl]propyl]-3,4-dihydro-2H-1,2-benzothiazin-4-one 1,1-dioxide ethylene acetal]	–	49.5 % of Control	89.3 % of Control	98.3 % of Control
COc1ccc2c(c1)S(=O)(=O)N(CCCN1CCC(C(=O)c3ccc(F)cc3)CC1)CC21OCCO1 [Compound No. 120, 2-[3-[4-(4-fluorobenzoyl)piperidino]propyl]-7-methoxy-3,4-dihydro-2H-1,2-benzothiazin-4-one 1,1-dioxide ethylene acetal]	20.3 % of Control	51.6 % of Control	71.6 % of Control	93.2 % of Control
